pEC50: −log10 of the molar value.
Columns and labels:
[1] = Acute toxicity (LD50, autopsy); format: in vivo; settings: orally
Source text: In the autopsy, no visible obvious injure was found in main visceral organs, and there was no statistical difference in the change in organ coefficient.

PPARγ = PPARγ (Homo sapiens (Human), UniProt P37231); assay: Nuclear receptor reporter gene (luciferase) screening model, PPARγ activation in HepG2 cells; format: cell-based; settings: for Experiment results (relative activation fold) PPARγ: HepG2, solvent control = 1; for pEC50: HepG2 reporter gene, 6 concentrations
Sequence of PPARγ (P37231 whole entry, species assumed): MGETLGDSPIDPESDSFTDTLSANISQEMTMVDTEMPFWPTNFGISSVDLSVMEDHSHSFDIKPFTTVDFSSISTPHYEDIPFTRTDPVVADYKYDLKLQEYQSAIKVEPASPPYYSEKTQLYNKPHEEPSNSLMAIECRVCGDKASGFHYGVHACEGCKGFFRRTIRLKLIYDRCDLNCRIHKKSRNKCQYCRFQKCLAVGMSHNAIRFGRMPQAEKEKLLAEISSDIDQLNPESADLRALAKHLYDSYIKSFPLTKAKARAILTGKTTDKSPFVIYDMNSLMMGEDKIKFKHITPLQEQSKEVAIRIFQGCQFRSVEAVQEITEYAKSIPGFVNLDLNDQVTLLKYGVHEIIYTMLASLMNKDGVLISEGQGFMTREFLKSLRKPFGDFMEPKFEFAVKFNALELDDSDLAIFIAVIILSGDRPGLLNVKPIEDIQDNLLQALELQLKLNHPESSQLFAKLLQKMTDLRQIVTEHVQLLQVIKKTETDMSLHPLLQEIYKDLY
Sequence of PPARγ (P19793 whole entry partner, species assumed): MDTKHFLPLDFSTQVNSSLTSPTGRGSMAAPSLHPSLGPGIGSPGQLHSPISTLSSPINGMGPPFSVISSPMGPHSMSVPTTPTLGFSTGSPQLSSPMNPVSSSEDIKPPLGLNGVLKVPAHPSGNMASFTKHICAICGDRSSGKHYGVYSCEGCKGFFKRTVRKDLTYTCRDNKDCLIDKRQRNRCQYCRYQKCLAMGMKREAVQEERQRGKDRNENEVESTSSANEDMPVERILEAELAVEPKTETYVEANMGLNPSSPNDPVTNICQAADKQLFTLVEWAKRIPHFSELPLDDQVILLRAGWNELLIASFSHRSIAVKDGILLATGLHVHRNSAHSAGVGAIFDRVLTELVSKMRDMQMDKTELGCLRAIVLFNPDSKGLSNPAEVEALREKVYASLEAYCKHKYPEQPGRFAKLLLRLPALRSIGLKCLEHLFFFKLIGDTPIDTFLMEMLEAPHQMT
Source text: (§1) Using a reporter gene method, a screening model for screening a nuclear receptor agonist in living cells is designed on the basis of the principal that a nuclear receptor can activate transcription of its downstream gene after being activated. A reporter gene plasmid is constructed, in which the DNA binding sequence for the nuclear receptor (NRE) is inserted at the upstream of a luciferase gene, such that the expression of the luciferase gene is regulated by the nuclear receptor. The reporter gene plasmid is transferred into a cell simultaneously with the nuclear receptor. The nuclear receptor will be activated when a nuclear receptor agonist presents in the cell culture medium. The receptor being activated can induce the expression of the luciferase gene, while the amount of generated luciferase can be determined with its luminescent substrate. In this way, the intensity of activation of the nuclear receptor by the compound can be determined by observing the luminescence intensity. For the calibration of the experimental error caused by factors such as transfection efficiency, amount of inoculated cells, toxicity of the compound, etc, a GFP plasmid is co-transfected simultaneously as the internal reference. In the analysis of the experimental results, the luminescent values tested for all wells are calibrated with GFP values. The experimental results are expressed as relative activation fold, with a value of 1 for the solvent control. The greater the fold is, the higher the activation capacity represents.
(§2) The detailed procedure is described as follows:
(§3) Hepatocarcinoma cell HepG2 (from ATCC, American Type Culture Collection) was cultured in a DMEM medium supplemented with 10% heat-inactivated fetal bovine serum (FBS, Invitogen, Grand Island, N.Y., USA) in a T-75 culture flask (Greiner, Germany) placed in a 5% CO2 incubator at 37° C. and 100% relative humidity.
(§4) On the next day, when the cells in the 96-well culture plate grew up to 50-80% confluency, cell transfection was performed. The cell co-transfection system comprised FuGene6 transfection agent (Roche Molecular Biochemicals, Indianapolis, Ind., U.S.A.) and 60 ng DNA (10 ng hRXR, 10 ng pCMV βGal, 10 ng nuclear receptor expression plasmid RXR/PPARα, δ, γ, 30 ng GFP fluorescence reporter gene plasmid, respectively).
(§5) The cell culture medium was discarded immediately after 24 hours of transfection and replaced by 200 μl fresh DMEM medium containing the test medicament (with 10% FBS treated by activated carbon). The final concentration gradients of the test medicament were 10 μM, 5 μM, 1 μM, 0.1 μM, 0.01 μM, 0.001 μM, and 0 μM. 0.05 μM 2-bromostearic acid (purchased from Sigma, USA) was used as the positive control. The final concentration of DMSO in each well was 0.1%.
(§6) After 24 h treatment with the medicament, the cells were lysed with a lysis solution (Cell Culture Lysis buffer, Promega) and centrifuged, and the supernatant was collected. The supernatant was reacted with a fluorescence assay kit (Promega) and counted by a fluorometer (Ascent Fluoroskan FL reader, Thermo Labsystems, Finland), and the relative intensity of luciferase was determined. For the assay of the β-galactosidase activity used in the experiment as the internal reference (the internal reference for calibrating the transfection efficiency), 50 μl of the supernatant was transferred into a fresh microplate, treated with a Promega kit, and the value was read with a microplate reader at a wavelength of 405 nm (Bio-tech Instruments Inc., Winooski, Vt., USA) (Sauerberg, P.; Olsen, G. S.; Jeppesen, L.; Mogensen, J. P. et al., J. Med. Chem., 2007, 50, 1495-1503).
(§7) In the present screening protocol, it was calculated according to the activation of the receptor by the sample at 6 different concentrations.
(§8) The concentration-activity profile of the effects of a compound was fitted by carrying out iterative computation according to the following formula, and corresponding EC50 was calculated: […]

PPARα = PPARα (Homo sapiens (Human), UniProt Q07869); assay: Nuclear receptor reporter gene (luciferase) screening model, PPARα activation in HepG2 cells; format: cell-based; settings: for Experiment results (relative activation fold) PPARα: HepG2, solvent control = 1; for pEC50: HepG2 reporter gene, 6 concentrations
Sequence of PPARα (Q07869 whole entry, species assumed): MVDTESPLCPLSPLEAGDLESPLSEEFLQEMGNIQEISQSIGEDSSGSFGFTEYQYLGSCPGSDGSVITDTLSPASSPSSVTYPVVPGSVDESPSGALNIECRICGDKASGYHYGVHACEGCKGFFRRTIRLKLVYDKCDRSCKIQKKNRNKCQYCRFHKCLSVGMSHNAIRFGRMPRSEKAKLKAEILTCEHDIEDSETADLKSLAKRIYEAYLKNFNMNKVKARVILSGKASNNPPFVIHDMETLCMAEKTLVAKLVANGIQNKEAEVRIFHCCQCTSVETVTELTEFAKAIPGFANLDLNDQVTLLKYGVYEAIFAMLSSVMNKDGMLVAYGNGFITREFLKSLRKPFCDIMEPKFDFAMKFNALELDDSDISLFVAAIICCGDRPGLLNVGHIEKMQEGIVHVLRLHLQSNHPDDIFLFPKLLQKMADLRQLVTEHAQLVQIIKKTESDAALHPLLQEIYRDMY
Sequence of PPARα (P19793 whole entry partner, species assumed): as the sequence (P19793 whole entry partner, species assumed) above
Source text: as §1, §2, §3, §4, §5, §6, §7, §8

PPARδ = PPARδ (Homo sapiens (Human), UniProt Q03181); assay: Nuclear receptor reporter gene (luciferase) screening model, PPARδ activation in HepG2 cells; format: cell-based; settings: for Experiment results (relative activation fold) PPARδ: HepG2, solvent control = 1; for pEC50: HepG2 reporter gene, 6 concentrations
Sequence of PPARδ (Q03181 whole entry, species assumed): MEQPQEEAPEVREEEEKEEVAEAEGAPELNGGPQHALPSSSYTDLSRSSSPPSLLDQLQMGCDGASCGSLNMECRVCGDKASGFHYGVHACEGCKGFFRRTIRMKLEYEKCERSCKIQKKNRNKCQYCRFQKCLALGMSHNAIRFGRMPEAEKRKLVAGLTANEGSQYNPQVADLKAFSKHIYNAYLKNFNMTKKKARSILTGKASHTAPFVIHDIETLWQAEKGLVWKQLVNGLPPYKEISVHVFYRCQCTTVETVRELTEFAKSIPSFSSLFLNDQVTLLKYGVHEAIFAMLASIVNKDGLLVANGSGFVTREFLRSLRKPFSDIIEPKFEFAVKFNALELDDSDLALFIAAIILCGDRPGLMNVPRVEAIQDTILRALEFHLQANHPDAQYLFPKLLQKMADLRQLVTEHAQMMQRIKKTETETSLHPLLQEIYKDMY
Sequence of PPARδ (P19793 whole entry partner, species assumed): as the sequence (P19793 whole entry partner, species assumed) above
Source text: as §1, §2, §3, §4, §5, §6, §7, §8

Experiment results (relative activation fold) PPARγ (PPARγ; 0.001 uM) | Experiment results (relative activation fold) PPARγ (PPARγ; 0.01 uM) | Experiment results (relative activation fold) PPARγ (PPARγ; 0.1 uM) | Experiment results (relative activation fold) PPARγ (PPARγ; 1 uM) | Experiment results (relative activation fold) PPARγ (PPARγ; 5 uM) | Experiment results (relative activation fold) PPARγ (PPARγ; 10 uM) | pEC50 (PPARγ) | Experiment results (relative activation fold) PPARα (PPARα; 0.001 uM) | Experiment results (relative activation fold) PPARα (PPARα; 0.01 uM) | Experiment results (relative activation fold) PPARα (PPARα; 0.1 uM) | Experiment results (relative activation fold) PPARα (PPARα; 1 uM) | Experiment results (relative activation fold) PPARα (PPARα; 5 uM) | Experiment results (relative activation fold) PPARα (PPARα; 10 uM) | pEC50 (PPARα) | Experiment results (relative activation fold) PPARδ (PPARδ; 0.001 uM) | Experiment results (relative activation fold) PPARδ (PPARδ; 0.01 uM) | Experiment results (relative activation fold) PPARδ (PPARδ; 0.1 uM) | Experiment results (relative activation fold) PPARδ (PPARδ; 1 uM) | Experiment results (relative activation fold) PPARδ (PPARδ; 5 uM) | Experiment results (relative activation fold) PPARδ (PPARδ; 10 uM) | SMILES | other results
 |  |  |  |  |  |  |  |  |  |  |  |  |  |  |  |  |  |  |  | CN(CCOc1ccc(CC2SC(=O)NC2=O)cc1)c1ccccn1 (stereo not shown) [rosiglitazone] | LD50 [1]: 3000 to 4000 mg/kg
0.92 fold | 1.02 fold | 1.04 fold | 1.74 fold | 1.63 fold | 2.53 fold | 5.17 | 1.33 fold | 1.23 fold | 1.27 fold | 1.53 fold | 1.76 fold | 1.96 fold | 5.58 | 0.99 fold | 0.87 fold | 1.09 fold | 1.11 fold | 1.27 fold | 1.63 fold | CCc1cc(OCCc2nc(-c3ccc(-c4nnn[nH]4)cc3)oc2C)ccc1CCC(=O)O [Compound 6] | pEC50 (PPARδ): 5.17
1.38 fold | 2.29 fold | 3.72 fold | 4.75 fold | 4.29 fold | 4.24 fold | 7.66 | 1.23 fold | 1.35 fold | 1.48 fold | 1.41 fold | 1.71 fold | 1.93 fold | 5.28 | 1.65 fold | 2.69 fold | 3.58 fold | 3.94 fold | 4.23 fold | 4.40 fold | CCc1cc(OCCc2nc(-c3ccc(C#N)cc3)oc2C)ccc1CCC(=O)O [Compound 8] | pEC50 (PPARδ): 8.22
2.70 fold | 3.78 fold | 3.81 fold | 5.17 fold | 4.19 fold | 5.88 fold | 7.05 | 1.14 fold | 1.20 fold | 1.18 fold | 1.65 fold | 2.31 fold | 2.96 fold | 5.26 | 1.45 fold | 1.53 fold | 2.25 fold | 3.51 fold | 4.22 fold | 4.60 fold | CCc1cc(OCCc2nc(-c3ccc(C(C)(C)C)cc3)oc2C)ccc1CCC(=O)O [Compound 4] | pEC50 (PPARδ): 6.07

Source: patent publication US9346770B2, “Compounds having activating effect on subtypes of peroxisome proliferator-activated receptors and its preparation method and uses” (ZHEJIANG HISUN PHARMACEUTICAL CO., LTD., priority 2010, dated 2016)
